From the NIST ThermoML archive (doi:10.1016/j.jct.2008.12.011)
Numbers after ± are expanded uncertainties.

Legend:
[1] = mn = molality of the nth substance listed, in mol/kg; conditions: 101 kPa, Liquid, Vibrating tube method
[2] = cn = amount concentration of the nth substance listed, in mol/dm3; conditions: 101.3 kPa, Liquid, Vibrating tube method

O=S(=O)(O)CC(O)CNC(CO)(CO)CO (configuration not stated) + O
mass density [kg/m3], [1]
Conditions | 298.15 K | 303.15 K | 310.15 K | 318.15 K | 323.15 K | 328.15 K
m1 = 0.0629 | 1003.59 ± 1 | 1002.16 ± 1 | 999.78 ± 1 | 996.62 ± 1 | 994.41 ± 1 | 992.05 ± 1
m1 = 0.123 | 1009.62 ± 1 | 1008.14 ± 1 | 1005.72 ± 1 | 1002.52 ± 1 | 1000.3 ± 1 | 997.92 ± 1
m1 = 0.1921 | 1016.37 ± 1 | 1014.86 ± 1 | 1012.39 ± 1 | 1009.15 ± 1 | 1006.89 ± 1 | 1004.5 ± 1
m1 = 0.4659 | 1041.93 ± 1 | 1040.26 ± 1 | 1037.6 ± 1 | 1034.18 ± 1 | 1031.71 ± 1 | 1028.8 ± 1
m1 = 0.7644 | 1069.04 ± 1 | 1066.83 ± 1 | 1063.04 ± 1 | 1059.95 ± 1 | 1056.86 ± 1 | 1054.93 ± 1

O=S(=O)(O)CCCNC(CO)(CO)CO [3-[tris(hydroxymethyl)methylamino]-1-propanesulfonic acid] + O
mass density [kg/m3], [1]
Conditions | m1 = 0.5011 | m1 = 0.8957 | m1 = 1.224 | m1 = 1.793 | m1 = 2.213 | m1 = 2.423 | m1 = 2.803
298.15 K | 1046.07 ± 1 | 1064.95 ± 1 | 1084.21 ± 1 | 1117.87 ± 1 | 1140.59 ± 1 | 1152.07 ± 1 | 1170.75 ± 1
303.15 K | 1044.13 ± 1 | 1062.96 ± 1 | 1082.18 ± 1 | 1115.68 ± 1 | 1138.38 ± 1 | 1149.81 ± 1 | 1168.43 ± 1
310.15 K | 1041.22 ± 1 | 1059.95 ± 1 | 1079.15 ± 1 | 1112.62 ± 1 | 1135.28 ± 1 | 1146.62 ± 1 | 1165.22 ± 1
318.15 K | 1037.23 ± 1 | 1055.92 ± 1 | 1075.09 ± 1 | 1108.55 ± 1 | 1131.19 ± 1 | 1142.49 ± 1 | 1161.04 ± 1
323.15 K | 1034.92 ± 1 | 1053.59 ± 1 | 1072.68 ± 1 | 1106.08 ± 1 | 1128.7 ± 1 | 1139.98 ± 1 | 1158.52 ± 1
328.15 K | 1032.67 ± 1 | 1051.25 ± 1 | 1070.31 ± 1 | 1103.67 ± 1 | 1126.12 ± 1 | 1137.32 ± 1 | 1155.87 ± 1

[Br-].[K+] [potassium bromide] + O
mass density [kg/m3], [2]
Conditions | c1 = 1 | c1 = 1.5 | c1 = 2 | c1 = 2.5 | c1 = 3 | c1 = 3.5 | c1 = 4
298.15 K | – | 1119.52 ± 1 | – | 1199.54 ± 1 | 1239.34 ± 1 | 1279.04 ± 1 | –
303.15 K | 1078.68 ± 1 | 1117.57 ± 1 | 1160.04 ± 1 | 1197.23 ± 1 | 1236.89 ± 1 | 1276.29 ± 1 | 1320.56 ± 1
308.15 K | 1075.81 ± 1 | 1114.62 ± 1 | 1156.73 ± 1 | 1193.88 ± 1 | 1233.52 ± 1 | 1272.28 ± 1 | 1316.47 ± 1
313.15 K | 1072.09 ± 1 | 1110.71 ± 1 | 1152.65 ± 1 | 1189.67 ± 1 | 1229.2 ± 1 | 1267.53 ± 1 | 1311.63 ± 1
318.15 K | 1066.6 ± 1 | 1106.96 ± 1 | 1149.76 ± 1 | 1186.74 ± 1 | 1226.19 ± 1 | 1264.46 ± 1 | 1308.52 ± 1
323.15 K | 1063.02 ± 1 | 1102.44 ± 1 | 1144.45 ± 1 | 1182.53 ± 1 | 1222.18 ± 1 | 1260.51 ± 1 | 1305.31 ± 1

[Cl-].[K+] [potassium chloride] + O
mass density [kg/m3], [2]
Conditions | c1 = 1 | c1 = 1.5 | c1 = 2 | c1 = 2.5 | c1 = 3 | c1 = 3.5 | c1 = 4
298.15 K | – | 1059.97 ± 1 | – | 1104.2 ± 1 | 1124.93 ± 1 | 1145.56 ± 1 | –
303.15 K | 1041.13 ± 1 | 1058.12 ± 1 | 1080.38 ± 1 | 1102.19 ± 1 | 1122.78 ± 1 | 1143.35 ± 1 | 1166.67 ± 1
308.15 K | 1038.43 ± 1 | 1055.31 ± 1 | 1077.43 ± 1 | 1099.06 ± 1 | 1119.56 ± 1 | 1140.06 ± 1 | 1163.34 ± 1
313.15 K | 1035.01 ± 1 | 1051.75 ± 1 | 1073.77 ± 1 | 1095.37 ± 1 | 1115.79 ± 1 | 1136.18 ± 1 | 1159.35 ± 1
318.15 K | 1032.69 ± 1 | 1049.38 ± 1 | 1071.35 ± 1 | 1092.9 ± 1 | 1113.28 ± 1 | 1133.63 ± 1 | 1156.76 ± 1
323.15 K | 1030.24 ± 1 | 1047.03 ± 1 | 1068.81 ± 1 | 1090.34 ± 1 | 1110.71 ± 1 | 1131.02 ± 1 | 1154.1 ± 1

CC(=O)[O-].[K+] [potassium ethanoate] + O
mass density [kg/m3], [2]
Conditions | c1 = 1 | c1 = 1.5 | c1 = 2 | c1 = 2.5 | c1 = 3 | c1 = 3.5 | c1 = 4
298.15 K | – | 1066.61 ± 1 | – | 1108.88 ± 1 | 1127.48 ± 1 | 1148.72 ± 1 | –
303.15 K | 1041.9 ± 1 | 1064.76 ± 1 | 1086.01 ± 1 | 1106.89 ± 1 | 1125.37 ± 1 | 1146.49 ± 1 | 1168.58 ± 1
308.15 K | 1039.27 ± 1 | 1062.94 ± 1 | 1083.09 ± 1 | 1103.93 ± 1 | 1122.15 ± 1 | 1143.14 ± 1 | 1165.13 ± 1
313.15 K | 1035.88 ± 1 | 1059.39 ± 1 | 1079.44 ± 1 | 1100.19 ± 1 | 1118.3 ± 1 | 1139.19 ± 1 | 1160.96 ± 1
318.15 K | 1033.57 ± 1 | 1057.02 ± 1 | 1077.01 ± 1 | 1097.66 ± 1 | 1115.71 ± 1 | 1136.58 ± 1 | 1158.26 ± 1
323.15 K | 1030.82 ± 1 | 1054.37 ± 1 | 1074.47 ± 1 | 1095.05 ± 1 | 1113.05 ± 1 | 1133.87 ± 1 | 1155.47 ± 1

[Cl-].[Na+] [sodium chloride] + O
mass density [kg/m3], [2]
Conditions | c1 = 1 | c1 = 1.5 | c1 = 2 | c1 = 2.5 | c1 = 3 | c1 = 3.5 | c1 = 4
298.15 K | – | 1053.3 ± 1 | – | 1088.97 ± 1 | 1110.22 ± 1 | 1124.82 ± 1 | –
303.15 K | 1035.38 ± 1 | 1055.01 ± 1 | 1073.49 ± 1 | 1086.83 ± 1 | 1107.87 ± 1 | 1122.4 ± 1 | 1146.3 ± 1
308.15 K | – | 1053.06 ± 1 | 1070.4 ± 1 | 1083.71 ± 1 | 1104.62 ± 1 | 1118.95 ± 1 | 1142.7 ± 1
313.15 K | 1029.13 ± 1 | 1050.21 ± 1 | 1066.6 ± 1 | 1079.83 ± 1 | 1100.67 ± 1 | 1114.84 ± 1 | 1138.45 ± 1
318.15 K | 1026.75 ± 1 | 1046.65 ± 1 | 1064.11 ± 1 | 1077.28 ± 1 | 1098.06 ± 1 | 1112.16 ± 1 | 1135.7 ± 1
323.15 K | 1023.15 ± 1 | 1044.21 ± 1 | 1061.5 ± 1 | 1074.62 ± 1 | 1095.35 ± 1 | 1109.38 ± 1 | 1132.89 ± 1
